From patent US20040162345A1, “Compounds with NEP/MP-inhibitory activity and uses thereof” (Solvay Pharmaceuticals GmbH, priority 2001, published 2004)
“Also recorded” adds a separate entry of the source. Where two headings read alike, the source gives them in different places. Marks after values point to notes of the source that are not given here. No end group written: not given here.

Columns and labels:
[1] = molecular target: T1, His6-tagged IGS5 ectodomain (Homo sapiens, UniProt Q495T6); assay: IGS5 enzyme inhibition assay (fluorescence-quenched big-ET-1 analog, HPLC); format: biochemical; details: for IC50: conversion of labeled fluorescent big-ET-1 analog
T1 construct: Enzyme: IGS-5 (sol hu)(his)6; or: His6-tagged IGS5 ectodomain;; made in house; host or cells: Sf9 insect cells, recombinant baculovirus IGBV73, purified from culture supernatant
T1 sequence (Q495T6 49-779 limits assumed): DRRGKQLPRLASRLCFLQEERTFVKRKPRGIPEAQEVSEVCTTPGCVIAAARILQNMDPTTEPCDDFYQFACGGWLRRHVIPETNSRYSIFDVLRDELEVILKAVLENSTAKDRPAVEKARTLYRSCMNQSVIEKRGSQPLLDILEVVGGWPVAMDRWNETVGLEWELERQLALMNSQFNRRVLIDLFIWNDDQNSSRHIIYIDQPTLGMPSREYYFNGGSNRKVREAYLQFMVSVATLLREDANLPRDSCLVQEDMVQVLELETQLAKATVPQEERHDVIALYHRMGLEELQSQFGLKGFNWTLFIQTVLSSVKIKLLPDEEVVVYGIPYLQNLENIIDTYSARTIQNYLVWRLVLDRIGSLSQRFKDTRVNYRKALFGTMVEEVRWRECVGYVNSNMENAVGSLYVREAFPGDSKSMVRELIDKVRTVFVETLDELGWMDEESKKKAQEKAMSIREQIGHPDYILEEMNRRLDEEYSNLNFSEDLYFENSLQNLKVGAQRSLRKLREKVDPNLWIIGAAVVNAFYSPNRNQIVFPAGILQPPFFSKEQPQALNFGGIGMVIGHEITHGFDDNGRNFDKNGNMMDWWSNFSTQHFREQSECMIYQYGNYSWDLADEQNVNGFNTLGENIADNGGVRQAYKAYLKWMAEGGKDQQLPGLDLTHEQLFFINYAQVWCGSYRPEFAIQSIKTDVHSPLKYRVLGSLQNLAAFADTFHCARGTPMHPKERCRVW
Description: (§1) The enzymatic activity of IGS5 polypeptides of the invention was tested with regard to the metabolism of biologically active peptides. In particular it was tested whether these IGS5 polypeptides may act on a variety of vasoactive peptides known in the state of the art e.g. such like atrial natriuretic peptide (ANP), bradykinin, big-endothelin (big-ET-1), endothelin (ET-1), substance P and angiotensin-1. In the context of the present invention in particular it was tested whether the IGS5 ectodomain, which is a novel human metalloprotease, hydrolyzes said vasoactive peptides. For comparison the assay was also performed for a known member of the metalloprotease family which was described earlier as soluble secreted endopeptidase (SEP) by Emoto et al. (J. Biol. Chem., Vol. 274 (1999): pp. 32469-32477). Furthermore, it was tested whether the activity of IGS5 to convert a big-ET-1 analog (the so-called 17 aa big-ET-1) may be inhibited by reference compounds that are used to determine the inhibition properties with regard to enzymes having ECE and/or NEP-characteristics.
Enzyme: IGS-5 (sol hu)(his)6; or: His6-tagged IGS5 ectodomain;
stock solution: 53 μg/ml in 20 mM HEPES pH 7.2, 5% glycerol, 0.005% Tween20, 100 mM NaCl, purity >99%; storage at 4° C.
working solution: stock solution diluted with assay buffer to 10 μg/ml.
Substrate: Mca-Asp-Ile-Ala-Trp-Phe-Dpa-[…]COOH;
Fluorescence-quenched big-ET-1 analog;
Assay buffer: 100 mM Tris pH 7.0, 250 mM NaCl.
All test compounds were dissolved in DMSO at 10 mM and were further diluted with assay buffer.
A quantity of 70 μl of the assay buffer, of 10 μl enzyme working solution and of 10 μl test compound solution were mixed in an Eppendorf vial and preincubated at 37° C. for 15 minutes. Then, 10 μl substrate stock solution was added and the reaction mixture was incubated at 37° C. for 60 minutes to allow for enzymatic hydrolysis. Subsequently the enzymatic reaction was terminated by heating at 95° C. for 5 minutes. After centrifugation (Heraeus Biofuge B, 3 min) the supernatant was subjected to HPLC analysis.
In order to separate the remaining substrate from the cleavage products reversed phase HPLC technique was used with a CC 125/4 Nucleosil 300/5 C18 RP column and a CC 8/4 Nucleosil 100/5 C18 precolumn (commercially available from Macherey-Nagel, Düren, Germany). Thus, 60 μl of the reaction samples obtained in Example 7b were injected into the HPLC, and the column was eluted at a flow rate of 1 ml/min by applying the following gradient and solutions: […]
The increasing fluorescence signal of the HPLC-peak of the peptide with the unquenched Mca-fluorophor after hydrolysis was taken as the basis for any calculation.
This signal was compared for the samples with and without inhibitor and % inhibition was calculated on basis of the respective peak areas.
% inhib=100*(1−Ainhib/Acontrol)
All samples were run in duplicate and mean values were used.
(§2) Furthermore, the potency of metalloprotease inhibitor compounds and reference compounds to suppress the conversion of big-ET to ET-1 was examined as described in this example 7, using a labeled fluorescent big-ET-1 analog. The procedures applied in the enzyme assays are described above in the examples 4 with regard to IGS5, in example 5 with regard to NEP, and in example 6 with regard to ECE.

[2] = molecular target: T2, IGS5 polypeptide (Homo sapiens, UniProt Q495T6); assay: Hydrolysis of vasoactive peptides by IGS5 polypeptides; format: biochemical; details: 0.5 μM substrate, 2 h, 37° C.
T2 construct: Enzyme: IGS-5 (sol hu)(his)6; or: His6-tagged IGS5 ectodomain;; made in house; host or cells: Sf9 insect cells, recombinant baculovirus IGBV73, purified from culture supernatant
T2 sequence (Q495T6 49-779 limits assumed): T1 sequence (Q495T6 49-779 limits assumed)
Description: as §1

[3] = molecular target: T3, SEP (soluble secreted endopeptidase) (Mus musculus, UniProt Q9JLI3); details: 10 μg SEP; 0.5 μM substrate; 12 h, 37° C.; cited from earlier work
T3 sequence (Q9JLI3 63-765 limits assumed): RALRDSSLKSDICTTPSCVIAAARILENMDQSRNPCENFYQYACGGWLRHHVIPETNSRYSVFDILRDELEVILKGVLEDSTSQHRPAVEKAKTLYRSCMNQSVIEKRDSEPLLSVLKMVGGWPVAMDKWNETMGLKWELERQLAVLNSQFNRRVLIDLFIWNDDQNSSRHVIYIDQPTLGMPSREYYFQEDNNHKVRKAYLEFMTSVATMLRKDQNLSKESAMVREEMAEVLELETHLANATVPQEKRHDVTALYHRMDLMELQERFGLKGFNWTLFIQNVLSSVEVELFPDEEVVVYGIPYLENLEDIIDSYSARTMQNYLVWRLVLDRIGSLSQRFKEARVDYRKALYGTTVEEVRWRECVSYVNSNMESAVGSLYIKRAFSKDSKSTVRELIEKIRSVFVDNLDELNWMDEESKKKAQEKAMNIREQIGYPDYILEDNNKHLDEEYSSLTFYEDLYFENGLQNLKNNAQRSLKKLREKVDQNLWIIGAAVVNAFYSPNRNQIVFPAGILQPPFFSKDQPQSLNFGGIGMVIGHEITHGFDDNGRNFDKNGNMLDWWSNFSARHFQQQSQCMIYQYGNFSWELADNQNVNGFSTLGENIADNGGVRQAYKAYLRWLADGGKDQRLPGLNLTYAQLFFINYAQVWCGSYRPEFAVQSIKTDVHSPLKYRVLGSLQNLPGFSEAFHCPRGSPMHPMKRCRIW

[4] = molecular target: Neutral endopeptidase (E.C. 3.4.24.11) (Sus scrofa, UniProt A0A4X1SQE6); assay: NEP enzyme inhibition assay (methionin-enkephalin substrate, HPLC); format: biochemical, pig
Description: Neutral endopeptidase (E.C. 3.4.24.11) was prepared from pig kidney cortex according to the method of Gee et al. (Biochem J 1985 May 15;228(1):119-26) and purified as reported by Relton et al. (Biochem J 1983 Dec. 1;215(3):519-23). For the enzyme inhibition assay 10 ng of the purified enzyme, 20 μM substrate (methionin-enkephalin) and various inhibitor concentrations were used. The assay buffer was 50 mM Tris-(hydroxymethyl)-aminomethan/HCl pH 7.4, the total assay volume was 100 μl. After a preincubation period of 5 min of enzyme and inhibitor, the substrate was added and subsequently a second incubation phase for enzyme induced substrate hydrolysis at 37° C. for 30 min was initiated. The enzymatic reaction was stopped by heating at 95° C. for 5 min. After centrifugation the supernatant was subjected to HPLC. The products of enzymatic substrate hydrolysis were separated from the native substrate by HPLC technique and the inhibitor potency calculated by comparing the peak areas of the products with the peak area of native substrate for both, the samples with and without inhibitor (control). Blanks without enzyme, controls without inhibitor, samples with inhibitor solvent instead of the inhibitor and samples with a standard inhibitor were added to each assay run.
as §2

[5] = test system: patients with congestive heart failure; assay: Open, baseline controlled pilot trial in patients with congestive heart failure; format: in vivo, human; details: following compound Ia-2 administration; p<0.001
Description: To proof the concept of clinical efficacy and safety of compound Ia-2 in man, 6 clinical trials were conducted in healthy volunteers and 2 proof of concept trials were conducted in patients: One randomized, placebo-controlled double-blind trial in patients with hypertension (N=191) and one open, baseline controlled pilot trial in patients with congestive heart failure (N=29). […] In the Intent-to-treat patient population (ITT), office diastolic blood pressure versus placebo decreased by −6.9 mmHg (last value under treatment; p<0.001) and office systolic blood pressure versus placebo decreased by −9.2 mmHg (last value under treatment; p=0.003) at the highest dose investigated (200 mg bid).

Chain of Neutral endopeptidase (E.C. 3.4.24.11) (A0A4X1SQE6 entry or part of it): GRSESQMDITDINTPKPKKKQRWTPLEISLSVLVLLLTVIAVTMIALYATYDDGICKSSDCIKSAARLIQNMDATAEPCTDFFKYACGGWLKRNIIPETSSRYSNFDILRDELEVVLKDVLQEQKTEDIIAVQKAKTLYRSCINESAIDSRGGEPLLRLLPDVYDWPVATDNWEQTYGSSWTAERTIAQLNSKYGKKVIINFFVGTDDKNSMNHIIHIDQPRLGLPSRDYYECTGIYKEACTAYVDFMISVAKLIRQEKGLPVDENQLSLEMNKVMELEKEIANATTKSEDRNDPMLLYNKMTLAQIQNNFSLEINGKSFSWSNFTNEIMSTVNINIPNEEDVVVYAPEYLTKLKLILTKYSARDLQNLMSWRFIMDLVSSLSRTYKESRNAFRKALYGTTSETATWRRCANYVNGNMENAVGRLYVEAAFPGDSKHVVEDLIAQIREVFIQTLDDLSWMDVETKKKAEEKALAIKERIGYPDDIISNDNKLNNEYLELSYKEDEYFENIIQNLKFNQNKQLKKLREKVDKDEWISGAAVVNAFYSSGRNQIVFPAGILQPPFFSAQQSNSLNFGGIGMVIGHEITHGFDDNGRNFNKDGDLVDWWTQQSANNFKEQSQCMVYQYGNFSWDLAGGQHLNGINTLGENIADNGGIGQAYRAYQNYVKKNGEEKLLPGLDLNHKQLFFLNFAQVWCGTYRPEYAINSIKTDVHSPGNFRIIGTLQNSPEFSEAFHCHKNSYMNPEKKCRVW

| % Hydrolysis by IGS5 Polypeptide ([2]; 100 μg IGS5 polypeptide) | Molecule | % Hydrolysis by SEP (Emoto et al.) [3] [%] | further results |
| --- | --- | --- | --- |
|  | Cc1nn(-c2ccccc2)c(NC(=O)NS(=O)(=O)c2ccc(Cl)cc2)c1C#N.[Na] |  | inhibition of IGS5 activity (in words) ([1]; monosodium salt): no inhibition of IGS5; also recorded: do not affect the activity of IGS5 |
| 5% | CC[C@H](C)[C@@H]1NC(=O)[C@H](CCCNC(=N)N)NC(=O)[C@H](CC(=O)O)NC(=O)[C@H](CCSC)NC(=O)[C@H](CCCNC(=N)N)NC(=O)CNC(=O)CNC(=O)[C@H](Cc2ccccc2)NC(=O)[C@@H](NC(=O)[C@H](CO)NC(=O)[C@H](CO)NC(=O)[C@H](CCCNC(=N)N)NC(=O)[C@H](CCCNC(=N)N)NC(=O)[C@H](CC(C)C)NC(=O)[C@@H](N)CO)CSSC[C@@H](C(=O)N[C@@H](CC(N)=O)C(=O)N[C@@H](CO)C(=O)N[C@@H](Cc2ccccc2)C(=O)N[C@@H](CCCNC(=N)N)C(=O)N[C@@H](Cc2ccc(O)cc2)C(=O)O)NC(=O)CNC(=O)[C@H](CC(C)C)NC(=O)CNC(=O)[C@H](CO)NC(=O)[C@H](CCC(N)=O)NC(=O)[C@H](C)NC(=O)CNC1=O [ANP] | >95 | % Hydrolysis by IGS5 Polypeptide ([2]; 500 μg IGS5 polypeptide): 80% |
|  | CC(C)C[C@H](NP(=O)(O)O[C@@H]1O[C@@H](C)[C@H](O)[C@@H](O)[C@H]1O)C(=O)N[C@@H](Cc1c[nH]c2ccccc12)C(=O)O [Phosphoramidon] |  | IC50 [4]: 2 nM; inhibition of IGS5 activity (in words) [1]: inhibits IGS5 with high potency; IC50 [1]: 18 nM |
|  | O=C(O)CN1C(=O)[C@@H](NC(=O)C2(C[C@@H](CCc3ccccc3)C(=O)O)CCCC2)CCc2ccccc21 [compound Ia-1, (3S,2′R)-3-{1-[2′-carboxy-4′-phenylbutyl]-cyclopentane-1-carbonylamino}-2,3,4,5-tetrahydro-2-oxo-1H-1-benzazepine-1-acetic acid] |  | correlation between log plasma concentrations of compound Ia-1 and plasma levels of big-ET [5]: significant positive correlation |
|  | Cc1nn(-c2ccccc2)c(NC(=O)NS(=O)(=O)c2ccc(Cl)cc2)c1C#N.[Na] [monosodium salt] |  | IC50 ([4]; 20 μM methionin-enkephalin, read-out: NEP IC50): > 1000 nM; IC50 [1]: > 10000 nM |
| 15*** % | Angiotensin 1: vasoactive peptide tested as substrate (DRVYIHPFHL; Angiotensin-1; UniProt P01019 25-34, looked up) | >95 |  |
| 41% | Mca-Asp-Ile-Ala-Trp-Phe-Dpa-Thr-Pro-Glu-His-Val-Val-Pro-Tyr-Gly-Leu-Gly-COOH [17 aa big-ET-1] |  |  |
| 100% | Substance P: vasoactive peptide tested as substrate | >95 |  |
|  | tert-Butyl (3S)-3-(1-benzylethylphosphonomethyl-cyclopentane-1-carbonylamino)-2,3,4,5-tetrahydro-2-oxo-1H-1-benzazepine-1-acetate [compound Ib-8] |  | IC50 [1]: 2.9 nM |

| Molecule | % Hydrolysis by IGS5 Polypeptide ([2]; 100 μg IGS5 polypeptide) | % Hydrolysis by SEP (Emoto et al.) [3] [%] | further results |
| --- | --- | --- | --- |
| CC[C@H](C)[C@H](NC(=O)[C@H](CC(=O)O)NC(=O)[C@H](CC(C)C)NC(=O)[C@H](Cc1c[nH]cn1)NC(=O)[C@@H]1CSSC[C@H](N)C(=O)N[C@@H](CO)C(=O)N[C@H]2CSSC[C@H](NC(=O)[C@H](CCC(=O)O)NC(=O)[C@H](CCCCN)NC(=O)[C@H](CC(=O)O)NC(=O)[C@H](CCSC)NC(=O)[C@H](CC(C)C)NC(=O)[C@H](CO)NC(=O)[C@H](CO)NC2=O)C(=O)N[C@@H](C(C)C)C(=O)N[C@@H](Cc2ccc(O)cc2)C(=O)N[C@@H](Cc2ccccc2)C(=O)N1)C(=O)N[C@H](C(=O)N[C@@H](Cc1c[nH]c2ccccc12)C(=O)O)[C@@H](C)CC [ET-1] | <30% | 92 |  |
| RPPGFSPFR [Bradykinin] | 100% |  | % Hydrolysis by IGS5 Polypeptide ([2]; 10 μg IGS5 polypeptide): 62% |
